Measurements: paper PMC9395488, “First-in-human study of IM156, a novel potent biguanide oxidative phosphorylation (OXPHOS) inhibitor, in patients with advanced solid tumors” (Investigational New Drugs, 2022)

Tested on: patients with advanced solid tumors
Assay: First-in-human phase 1 dose-escalation study: safety, DLTs, adverse events
Format: in vivo
From the text: This multicenter first-in-human dose-escalation phase 1 study (clinicaltrials.gov identifier: NCT03272256) was designed to determine the MTD or RP2D and to evaluate the safety and tolerability of IM156. Secondary endpoints included PK characteristics, efficacy assessment (objective response rate [ORR], disease control rate [DCR], duration of response [DoR] and progression-free survival [PFS]). Furthermore, exploratory objectives included identification and profiling of IM156 metabolites, evaluations of exploratory PD markers of IM156, and evaluations of any potential relationship between putative biomarkers and safety/efficacy parameters of IM156. The study was conducted in accordance with Good Clinical Practice, the International Council for Harmonisation, and guidelines governing clinical study conduct and the ethical principles originating from the Declaration of Helsinki. The study was approved by each Institutional Review Board and patients provided written informed consent. Patients were enrolled at three sites in South Korea.
The initial dose and schedule of IM156 was chosen based on animal toxicology studies. […] IM156 was administered in the fasted state, with no food for at least 2 h before and 1 h after dosing.
Three DLT-evaluable patients were enrolled at each dose level. If there were no DLTs or other prohibitive adverse events (AEs), the Safety Committee was allowed to recommend escalation to the next highest dose level. If 1 DLT occurred in the first 3 DLT-evaluable patients, enrollment in that cohort was expanded to an additional 3 DLT-evaluable patients; if ≥ 2 DLTs were reported in a cohort, that dose was considered above the MTD.
Safety was assessed through vital signs, weight, laboratory assessments, physical examinations, electrocardiogram, and reporting of AEs as graded by the National Cancer Institute’s Common Terminology Criteria for Adverse Events v4.03 (NCI-CTCAE).
DLTs were defined as the following AEs if they were attributed as related to IM156: asymptomatic grade 4 neutropenia lasting for ≥ 5 days; febrile neutropenia, regardless of grade; grade 4 thrombocytopenia or grade 3 thrombocytopenia with bleeding; any grade ≥ 3 non-hematologic AE (except grade 3 hypertension and grade 3 nausea, vomiting or diarrhea for which proper measures for prevention and treatment were not implemented, and alopecia); blood lactate levels > 5 mmol; grade ≥ 2 AE prohibiting dosing of IM156 for ≥ 21 continuous days except for alterations in serum calcium or phosphorus levels. The safety analysis includes all patients who received at least one dose of study drug.
The safety population was defined as all patients who received at least one dose of IM156. The PK population was not defined in the protocol but included all patients with sufficient PK data to perform adequate PK modeling. The efficacy population included all patients who underwent at least one tumor imaging assessment while receiving IM156. Safety was assessed using descriptive statistics (e.g., DLTs, AEs, laboratory tests, physical examination, 12-lead ECG). The incidence and number of events were reported for the DLTs observed in Cycle 1 per dose group. […] Adverse events and TRAEs were standardized with the System Organ Class and the Preferred Term using the Medical Dictionary for Regulatory Activities v23.0. In addition, TEAEs, serious adverse events (SAEs), TEAE severity, and TEAEs leading to withdrawal were presented by dose group. Efficacy data were to be presented by Waterfall and Swim Lane plots. Time to event endpoints (e.g., DoR, PFS) were determined using Kaplan–Meier estimations with the median value for each endpoint summarized.

[1] = DL1 100 mg orally every other day (n=3)
[2] = DL2 200 mg orally every other day (n=3)

Structure (SMILES): NC(=Nc1ccc(OC(F)(F)F)cc1)N=C(N)N1CCCC1 [IM156]
- TEAE Psychiatric disorders grade 1 [1]: 0
- TEAE Psychiatric disorders grade 2 [1]: 0
- TEAE Psychiatric disorders grade 3 [1]: 0
- TEAE Psychiatric disorders grade 4 [1]: 0
- TEAE Purpura grade 1 [1]: 0
- TEAE Purpura grade 2 [1]: 0
- TEAE Purpura grade 3 [1]: 0
- TEAE Purpura grade 4 [1]: 0
- TEAE Urinary retention grade 1 [1]: 0
- TEAE Urinary retention grade 2 [1]: 0
- TEAE Urinary retention grade 3 [1]: 0
- TEAE Urinary retention grade 4 [1]: 0
- TEAE Urinary tract disorder grade 1 [1]: 0
- TEAE Urinary tract disorder grade 2 [1]: 0
- TEAE Urinary tract disorder grade 3 [1]: 0
- TEAE Urinary tract disorder grade 4 [1]: 0
- TEAE Abdominal pain, grade 2 (DL2 200 mg QOD (n=3)): 1
- TEAE Alanine aminotransferase increased, grade 1 (DL2 200 mg QOD (n=3)): 1
- TEAE Asthenia, grade 1 (DL2 200 mg QOD (n=3)): 1
- TEAE Cough, grade 1 (DL2 200 mg QOD (n=3)): 1
- TEAE Diarrhoea, grade 2 (DL2 200 mg QOD (n=3)): 1
- TEAE Ileus, grade 3 (DL2 200 mg QOD (n=3)): 1
- TEAE Nausea, grade 1 (DL2 200 mg QOD (n=3)): 1
- TEAE Pleural effusion, grade 2 (DL2 200 mg QOD (n=3)): 1
- TEAE Pyrexia, grade 1 (DL2 200 mg QOD (n=3)): 1
- TEAE Vomiting, grade 1 (DL2 200 mg QOD (n=3)): 2
- TRAE Abdominal Pain, > G3 (patients) (DL2 200 mg QOD oral, N = 3): 0
- TRAE Abdominal Pain, All grades (patients) (DL2 200 mg QOD oral, N = 3): 0
- TRAE Blood Lactic Acid increased, > G3 (patients) (DL2 200 mg QOD oral, N = 3): 0
- TRAE Blood Lactic Acid increased, All grades (patients) (DL2 200 mg QOD oral, N = 3): 0
- TRAE Constipation, > G3 (patients) (DL2 200 mg QOD oral, N = 3): 0
- TRAE Constipation, All grades (patients) (DL2 200 mg QOD oral, N = 3): 0
- TRAE Decreased appetite, > G3 (patients) (DL2 200 mg QOD oral, N = 3): 0
- TRAE Decreased appetite, All grades (patients) (DL2 200 mg QOD oral, N = 3): 1
- TRAE Diarrhoea, > G3 (patients) (DL2 200 mg QOD oral, N = 3): 0
- TRAE Diarrhoea, All grades (patients) (DL2 200 mg QOD oral, N = 3): 1
- TRAE Fatigue, > G3 (patients) (DL2 200 mg QOD oral, N = 3): 0
- TRAE Fatigue, All grades (patients) (DL2 200 mg QOD oral, N = 3): 0
- TRAE Insomnia, > G3 (patients) (DL2 200 mg QOD oral, N = 3): 0
- TRAE Insomnia, All grades (patients) (DL2 200 mg QOD oral, N = 3): 1
- TRAE Nausea, > G3 (patients) (DL2 200 mg QOD oral, N = 3): 0
- TRAE Nausea, All grades (patients) (DL2 200 mg QOD oral, N = 3): 1
- TRAE Vomiting, > G3 (patients) (DL2 200 mg QOD oral, N = 3): 0
- TRAE Vomiting, All grades (patients) (DL2 200 mg QOD oral, N = 3): 2
- TEAE Adrenal insufficiency grade 1 [2]: 0
- TEAE Adrenal insufficiency grade 2 [2]: 0
- TEAE Adrenal insufficiency grade 3 [2]: 0
- TEAE Adrenal insufficiency grade 4 [2]: 0
- TEAE Anaemia grade 1 [2]: 0
- TEAE Anaemia grade 2 [2]: 1
- TEAE Anaemia grade 3 [2]: 0
- TEAE Anaemia grade 4 [2]: 0
- TEAE Appendicitis perforated grade 1 [2]: 0
- TEAE Appendicitis perforated grade 2 [2]: 0
- TEAE Appendicitis perforated grade 3 [2]: 0
- TEAE Appendicitis perforated grade 4 [2]: 0
- TEAE Back pain grade 1 [2]: 0
- TEAE Back pain grade 2 [2]: 0
- TEAE Back pain grade 3 [2]: 0
- TEAE Back pain grade 4 [2]: 0
- TEAE Cystitis grade 1 [2]: 0
- TEAE Cystitis grade 2 [2]: 0
- TEAE Cystitis grade 3 [2]: 0
- TEAE Cystitis grade 4 [2]: 0
- TEAE Dry skin grade 1 [2]: 0
- TEAE Dry skin grade 2 [2]: 0
- TEAE Dry skin grade 3 [2]: 0
- TEAE Dry skin grade 4 [2]: 0
- TEAE Flank pain grade 1 [2]: 0
- TEAE Flank pain grade 2 [2]: 1
- TEAE Flank pain grade 3 [2]: 0
- TEAE Flank pain grade 4 [2]: 0
- TEAE Hypertension grade 1 [2]: 0
- TEAE Hypertension grade 2 [2]: 0
- TEAE Hypertension grade 3 [2]: 0
- TEAE Hypertension grade 4 [2]: 0
- TEAE Hypotension grade 1 [2]: 0
- TEAE Hypotension grade 2 [2]: 0
- TEAE Hypotension grade 3 [2]: 0
- TEAE Hypotension grade 4 [2]: 0
- TEAE Insomnia grade 1 [2]: 0
- TEAE Insomnia grade 2 [2]: 1
- TEAE Insomnia grade 3 [2]: 0
- TEAE Insomnia grade 4 [2]: 0
- TEAE Pain in extremity grade 1 [2]: 0
- TEAE Pain in extremity grade 2 [2]: 0
- TEAE Pain in extremity grade 3 [2]: 0
- TEAE Pain in extremity grade 4 [2]: 0
- TEAE Pruritus grade 1 [2]: 0
- TEAE Pruritus grade 2 [2]: 0
- TEAE Pruritus grade 3 [2]: 0
- TEAE Pruritus grade 4 [2]: 0
- TEAE Psychiatric disorders grade 1 [2]: 0
- TEAE Psychiatric disorders grade 2 [2]: 1
- TEAE Psychiatric disorders grade 3 [2]: 0
- TEAE Psychiatric disorders grade 4 [2]: 0
- TEAE Purpura grade 1 [2]: 0
- TEAE Purpura grade 2 [2]: 0
- TEAE Purpura grade 3 [2]: 0
- TEAE Purpura grade 4 [2]: 0
- TEAE Urinary retention grade 1 [2]: 0
- TEAE Urinary retention grade 2 [2]: 0
- TEAE Urinary retention grade 3 [2]: 0
- TEAE Urinary retention grade 4 [2]: 0
- TEAE Urinary tract disorder grade 1 [2]: 0
- TEAE Urinary tract disorder grade 2 [2]: 0
- TEAE Urinary tract disorder grade 3 [2]: 0
- TEAE Urinary tract disorder grade 4 [2]: 0
- TEAE Cough, grade 1 (DL3 400 mg QOD (n=3)): 1
- TEAE Headache, grade 2 (DL3 400 mg QOD (n=3)): 1
- TEAE Nausea, grade 1 (DL3 400 mg QOD (n=3)): 1
- TEAE Nausea, grade 2 (DL3 400 mg QOD (n=3)): 2
- TEAE Neutrophil count decreased, grade 4 (DL3 400 mg QOD (n=3)): 1
- TEAE Peripheral sensory neuropathy, grade 1 (DL3 400 mg QOD (n=3)): 1
- TEAE Vomiting, grade 1 (DL3 400 mg QOD (n=3)): 2
- TRAE Abdominal Pain, > G3 (patients) (DL3 400 mg QOD oral, N = 3): 0
- TRAE Abdominal Pain, All grades (patients) (DL3 400 mg QOD oral, N = 3): 0
